Legend:
[1] = system: Foxtail (Setaria viridis); assay: Upland soil application test, green foxtail; format: in vivo; conditions: 1200 h, soil application one day after seeding, 50 g ai/a, wettable powder, fresh weight on 50th day after spray, read-out: Herbicidal effects Foxtail (Setaria viridis)
Description: (§1) Resin-made 1/1000-are pots were filled with the soil of an upland field. After they were fertilized, cotton and soybean were seeded and 3 cm soil covering was applied. In addition, amaranth, common lambs-quarters, barnyardgrass, green foxtail, large crabgrass and johnsongrass were seeded and 1 cm soil covering was applied. One day later, a wettable powder prepared from a predetermined amount of each test compound in a similar manner to the procedures described in Formulation Example 1 was diluted with water and then sprayed evenly at an application rate equal to 10 l per are onto the surface of the soil by means of a pressure-operated sprayer. The weeds and crops were allowed to grow in a green house and influence to them were observed on the 50th day after the spray. The degree of damages of each test plant and the degree of injury to each crop were determined by measuring fresh weight in each group and indicated by % calculated according to the following formula. [formula]

[2] = system: Foxtail (Setaria viridis); assay: Upland foliar application test, green foxtail; format: in vivo; conditions: 960 h, foliar application at stage of 2-3 leaves, 50 g ai/a, emulsion, 40th day after spray, read-out: Herbicidal effects Foxtail (Setaria viridis)
Description: as §1
(§2) Resin-made 1/1000-are pots were filled with the soil of an upland field. After they were fertilized, cotton and soybean were seeded and 3 cm soil covering was applied. Five days later, amaranth, common lambsquarters, barnyardgrass, green foxtail, large crabgrass and johnsongrass were seeded and 1 cm soil covering was applied. They were allowed to grow in a green house. When each plant grew to the stage of 2-3 leaves, an emulsion formulated from a predetermined amount of each test compound in a similar manner to the procedures described in Formulation Example 11 was diluted with water and then sprayed at a predetermined application rate by means of a pressure-operated sprayer. The application rate was controlled at 5 l per are. Influence to the crops and weeds were observed on the 40th day after the spray of the herbicides. The results are shown in Table 4 in which the degree of damages of each test plant and the degree of injury to each crop are shown in a similar manner to Test 2.

[3] = system: johnsongrass emerging from rhizome; assay: Application test on johnsongrass emerging from rhizome; format: in vivo; conditions: foliar application at stage of 4-5 leaves, application rate of active ingredient 20 (unit not given), emulsion, 50th day after spray
Description: as §1
Resin-made 1/1000-are pots were filled with the soil of an upland field. After they were fertilized, rhizome of johnsongrass were transplanted to the pots and 3 cm soil covering was applied. They were allowed to grow in a green house. When each johnsongrass grew to the stage of 4-5 leaves, an emulsion formulated from a predetermined amount of each test compound in a similar manner to the procedures described in Formulation Example 11 was diluted with water and then sprayed at a predetermined application rate by means of a pressure-operated sprayer. The application rate was controlled at 5 l per are. The effect of each compound against the johnsongrass emerging from its rhizome was observed on the 50th day after the spray of the herbicides. The results are shown in Table 5 in which the herbicidal effect against johnsongrass is shown in a similar manner to Test 2.

[4] = system: Crabgrass (Digitaria adscendens); assay: Upland foliar application test, large crabgrass; format: in vivo; conditions: 960 h, foliar application at stage of 2-3 leaves, 50 g ai/a, emulsion, 40th day after spray, read-out: Herbicidal effects Crabgrass (Digitaria adscendens)
Description: as §1, §2

Johnsongrass [5] = assay: Upland foliar application test, johnsongrass; format: in vivo; conditions: Sorghum halepense, 960 h; foliar application at stage of 2-3 leaves, 50 g ai/a, emulsion, 40th day after spray; read-out: Herbicidal effects Johnsongrass
Description: as §2

[6] = system: Barnyardgrass (Echinochloa crusgalli); assay: Upland foliar application test, barnyardgrass; format: in vivo; conditions: Echinochloa crus-galli, 960 h; foliar application at stage of 2-3 leaves, 50 g ai/a, emulsion, 40th day after spray; read-out: Herbicidal effects Barnyardgrass (Echinochloa crusgalli)
Description: as §2

[7] = system: Amaranth (Amaranthus viridis); assay: Upland foliar application test, amaranth; format: in vivo; conditions: 960 h, foliar application at stage of 2-3 leaves, 50 g ai/a, emulsion, 40th day after spray, read-out: Herbicidal effects Amaranth (Amaranthus viridis)
Description: as §1, §2

[8] = system: Cotton (Gossypium indicum); assay: Upland foliar application test, crop injury cotton; format: in vivo; conditions: foliar application at stage of 2-3 leaves, 50 g ai/a, emulsion, 40th day after spray
Description: as §1, §2

[9] = system: ALS (acetolactate syntase) from barnyardgrass seedlings; assay: ALS (acetolactate syntase) inhibition test, barnyardgrass enzyme; format: biochemical; conditions: 10,000 ppm (0.5 μg/0.5 ml) of compound; 1 hour at 30° C.; absorbance at 525 nm
Description: (§3) To determine the selectivity in enzyme level between crops and weeds, an ALS inhibition test was conducted using pea as a typical broadleaf crop and barnyardgrass as a representative gramineous weeds.
(§4) After seeds of pea and barnyardgrass were allowed to germinate at 25° C. for 8-14 days in a dark place, partially-purified suspensions (Suspensions A) of acetolactate syntase were separately obtained from the seedlings in accordance with the procedures described in the literature, Plant Physiology, 75, 827-831. In a test tube, 0.5 mg of one of test compounds was weighed, followed by the addition of 0.15 ml of a 20 mM K2 HPO4 solution and 0.25 ml of a reaction substrate medium which consisted of 40 mM of K2 HPO4, 40 mM of sodium pyruvate, 1 mM of TPP, 1 mM of MgCl2 and 20 μM of FAD so that 0.4 ml of a reaction solution (Solution B) was prepared. Added to 0.4 ml of Solution B was 0.1 ml of Suspension A. After the resultant mixture was shaken for 1 hour in a thermostat water bath controlled at 30° C., 50 μl of 6N sulfuric acid were added to terminate the reaction.
(§5) Next, the test tube with the reaction-terminated liquid mixture contained therein was transferred into a thermostat water bath controlled at 60° C. and was heated for 15 minutes. Thereafter, 0.5 ml of a 0.5% creatine solution and 0.5 ml of a 5% alkaline α-naphthol solution were added, and the resultant mixture was maintained at 60° C. for 15 minutes. As a result, the test solution developed a pink-to-red color. After the above operation, the absorbance of the test solution at 525 nm was measured by a spectrophotometer (Absorbance 1 of Test Compound).
(§6) Further, the absorbance (Absorbance 2 of Blank) of a solution obtained by subjecting a portion of Solution B to the above procedures without addition of any test compound and the absorbance (Absorbance 3 of sulfuric acid) of another solution obtained by subjecting another portion of Solution B to the above procedures which using 50 μl of 6N sulfuric acid as a test compound were also measured.

common lambsquarters [10] = assay: Upland foliar application test, common lambsquarters; format: in vivo; conditions: Chenopodium album, 960 h; foliar application at stage of 2-3 leaves, 50 g ai/a, emulsion, 40th day after spray; read-out: Herbicidal effects Common lambquarters
Description: as §2

[11] = system: Crabgrass (Digitaria adscendens); assay: Upland soil application test, large crabgrass; format: in vivo; conditions: 1200 h, soil application one day after seeding, 50 g ai/a, wettable powder, fresh weight on 50th day after spray, read-out: Herbicidal effects Crabgrass (Digitaria adscendens)
Description: as §1

Soybean (Glycine max) [12] = assay: Upland foliar application test, crop injury soybean; format: in vivo; conditions: foliar application at stage of 2-3 leaves, 50 g ai/a, emulsion, 40th day after spray
Description: as §2

[13] = system: ALS (acetolactate syntase) from pea seedlings; assay: ALS (acetolactate syntase) inhibition test, pea enzyme; format: biochemical; conditions: 10,000 ppm (0.5 μg/0.5 ml) of compound; 1 hour at 30° C.; absorbance at 525 nm
Description: as §3, §4, §5, §6

[14] = system: Barnyardgrass (Echinochloa crusgalli); assay: Upland soil application test, barnyardgrass; format: in vivo; conditions: Echinochloa crus-galli, 1200 h; soil application one day after seeding, 50 g ai/a, wettable powder, fresh weight on 50th day after spray; read-out: Herbicidal effects Barnyardgrass (Echinochloa crusgalli)
Description: as §1

[15] = system: Cotton (Gossypium indicum); assay: Upland soil application test, crop injury cotton; format: in vivo; conditions: soil application one day after seeding, 50 g ai/a, wettable powder, fresh weight on 50th day after spray
Description: as §1

common lambsquarters [16] = assay: Upland soil application test, common lambsquarters; format: in vivo; conditions: Chenopodium album, 1200 h; soil application one day after seeding, 50 g ai/a, wettable powder, fresh weight on 50th day after spray; read-out: Herbicidal effects Common lambquarters
Description: as §1

Soybean (Glycine max) [17] = assay: Upland soil application test, crop injury soybean; format: in vivo; conditions: soil application one day after seeding, 50 g ai/a, wettable powder, fresh weight on 50th day after spray
Description: as §1

[18] = system: Amaranth (Amaranthus viridis); assay: Upland soil application test, amaranth; format: in vivo; conditions: 1200 h, soil application one day after seeding, 50 g ai/a, wettable powder, fresh weight on 50th day after spray, read-out: Herbicidal effects Amaranth (Amaranthus viridis)
Description: as §1

Johnsongrass [19] = assay: Upland soil application test, johnsongrass; format: in vivo; conditions: Sorghum halepense, 1200 h; soil application one day after seeding, 50 g ai/a, wettable powder, fresh weight on 50th day after spray; read-out: Herbicidal effects Johnsongrass
Description: as §1

For `CCCCCCCCOC(OCCCCCCCC)c1ccccc1Oc1nc(OC)cc(OC)n1` [Compound No. 7, 2-(4,6-dimethoxypyrimidin-2-yloxy)benzaldehyde di-n-octylacetal], the pest or weed control at 5000 g/ha [1] was 90%, the pest or weed control at 5000 g/ha [2] was 90% and the “Herbicidal effect against johnsongrass emerging from rhizome” value [3] was 80%. It also gave a pest or weed control at 5000 g/ha [4] of 90%, a pest or weed control at 5000 g/ha (Johnsongrass [5]) of 100% and a pest or weed control at 5000 g/ha [6] of 95%. The pest or weed control at 5000 g/ha [7] was 90%, the “Crop injury Cotton (Gossypium indicum)” value [8] was 0% and the “Enzymoreaction inhibition rate (%) Barnyardgrass” value [9] was 100%. The pest or weed control at 5000 g/ha (common lambsquarters [10]) was 85%, the pest or weed control at 5000 g/ha [11] was 80% and the “Crop injury Soybean (Glycine max)” value (Soybean (Glycine max) [12]) was 0%. For the same compound, the “Enzymoreaction inhibition rate (%) Pea” value [13] was 0%, the pest or weed control at 5000 g/ha [14] was 85% and the “Crop injury Cotton (Gossypium indicum)” value [15] was 0%. For the same compound, the pest or weed control at 5000 g/ha (common lambsquarters [16]) was 85%, the “Crop injury Soybean (Glycine max)” value (Soybean (Glycine max) [17]) was 0% and the pest or weed control at 5000 g/ha [18] was 80%. The pest or weed control at 5000 g/ha (Johnsongrass [19]) was 100%.

`CCCCCCOC(OCCCCCC)c1ccccc1Oc1nc(OC)cc(OC)n1` [Compound No. 5, 2-(4,6-dimethoxypyrimidin-2-yloxy)benzaldehyde di-n-hexylacetal] was tested, and the pest or weed control at 5000 g/ha [1] was 100%, the pest or weed control at 5000 g/ha [2] was 100% and the “Herbicidal effect against johnsongrass emerging from rhizome” value [3] was 100%. The pest or weed control at 5000 g/ha [4] was 100%, the pest or weed control at 5000 g/ha (Johnsongrass [5]) was 100% and the pest or weed control at 5000 g/ha [6] was 100%. The pest or weed control at 5000 g/ha [7] was 100%, the “Crop injury Cotton (Gossypium indicum)” value [8] was 0% and the “Enzymoreaction inhibition rate (%) Barnyardgrass” value [9] was 100%. For the same compound, the pest or weed control at 5000 g/ha (common lambsquarters [10]) was 100%, the pest or weed control at 5000 g/ha [11] was 100% and the “Crop injury Soybean (Glycine max)” value (Soybean (Glycine max) [12]) was 0%. The “Enzymoreaction inhibition rate (%) Pea” value [13] was 0%, the pest or weed control at 5000 g/ha [14] was 100% and the “Crop injury Cotton (Gossypium indicum)” value [15] was 0%. The pest or weed control at 5000 g/ha (common lambsquarters [16]) was 100%, the “Crop injury Soybean (Glycine max)” value (Soybean (Glycine max) [17]) was 0% and the pest or weed control at 5000 g/ha [18] was 100%. For the same compound, the pest or weed control at 5000 g/ha (Johnsongrass [19]) was 100%.

From US5178662A, “Benzaldehyde acetal compounds, preparation process thereof, and herbicidal compositions containing the same as active ingredients” (Mitsui Toatsu Chemicals, Inc., priority 1990, dated 1993)
